This note sets out measurements from US20240217957A1, “HETEROCYCLIC COMPOUND AND USE THEREOF” (TAKEDA PHARMACEUTICAL COMPANY LIMITED, priority 2022, published 2024).

In this experiment the target is T1, human OX2 receptor (Homo sapiens, UniProt O43614).
T1 construct: expressed in transfected cells
T1 sequence (O43614 1-444): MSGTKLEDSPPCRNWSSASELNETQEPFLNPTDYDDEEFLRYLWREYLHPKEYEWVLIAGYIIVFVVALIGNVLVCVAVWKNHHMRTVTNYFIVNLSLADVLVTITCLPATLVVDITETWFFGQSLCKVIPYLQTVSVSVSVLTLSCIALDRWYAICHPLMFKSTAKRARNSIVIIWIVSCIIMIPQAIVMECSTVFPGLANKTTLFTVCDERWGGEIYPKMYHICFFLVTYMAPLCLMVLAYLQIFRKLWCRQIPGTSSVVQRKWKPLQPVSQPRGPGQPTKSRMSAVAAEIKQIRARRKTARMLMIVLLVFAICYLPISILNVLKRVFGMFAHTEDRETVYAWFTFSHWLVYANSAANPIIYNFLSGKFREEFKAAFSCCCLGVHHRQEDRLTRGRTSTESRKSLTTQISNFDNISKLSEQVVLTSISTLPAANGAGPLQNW
Nature of the experiment: Measurement of orexin type 2 receptor agonist activity (calcium fluorescence, Fluo-4 AM, FDSS). It counts as cell-based. As to conditions: compound at 3 μM; CHO cells forcibly expressing human OX2 receptor; DMSO = 0%, 10 nM orexin A (human) = 100%. As for the experimental part:
In order to obtain cell clones that stably express human orexin type 2 receptor, human orexin type 2 (residues 1-444, NCBI Reference Sequence: AK314279) was constructed in a pcDNA3.1 (+) vector (Invitrogen) to express in mammalian cells. This plasmid DNA was transfected into CHO-K1 cells by electroporation, and stable clones were obtained by limiting dilution using resistance to G418 as a selection marker.
CHO cells in which human OX2 receptor was forcibly expressed were seeded at 10,000 cells/well into a 384-well black transparent bottom plate (BD falcon), and were incubated at 37° C., 5% CO2 for 1 day after incubation at room temperature for 30 minutes. After removing the cell plate medium, assay buffer containing calcium indicator A (HBSS (Thermo Fisher Scientific), 20 mM HEPES (Thermo Fisher Scientific), 0.1% BSA (Sigma-Aldrich), 2.5 μg/mL Fluo-4 AM (Dojin Kagaku), 0.08% Pluronic F127 (Dojin Kagaku), 1.25 mM probenecid (Dojin Kagaku)) was added at 30 μL/well. After incubation in a 5% CO2 incubator at 37° C. for 30 minutes, it was incubated at room temperature for another 30 minutes. Add 10 μL/well of the test compound diluted with assay buffer B (HBSS, 20 mM HEPES, 0.1% BSA), and use FDSS uCELL (Hamamatsu Photonics) to measure the fluorescence value every 1 second for 1 minute, and then every 2 seconds for […]. It was measured for 1 minute and 40 seconds. The amount of fluorescence value when DMSO is added instead of the test compound is defined as 0%, and the amount of fluorescence value when orexin A (human) (Peptide Institute) with a final concentration of 10 nM is added is defined as 100%. The activity (%) of the test compound was calculated.
As to `Cc1cnc([C@@H]2CC(N3CC[C@H](NS(=O)(=O)C4(F)CC4)C3)=NO2)c(-c2c(F)cccc2F)c1` [Example 30, N-[(3S)-1-{(5S)-5-[3-(2,6-difluorophenyl)-5-methylpyridin-2-yl]-4,5-dihydro-1,2-oxazol-3-yl}pyrrolidin-3-yl]-1-fluorocyclopropane-1-sulfonamide], the “OX2R agonist activity (3 μM, %)” value was 104%.

As to `Cc1cnc([C@@H]2CC(N3C[C@@H](NS(=O)(=O)C(F)F)C(F)(F)C3)=NO2)c(-c2c(F)cccc2F)c1` [Example 31, N-[(3R)-1-{(5S)-5-[3-(2,6-difluorophenyl)-5-methylpyridin-2-yl]-4,5-dihydro-1,2-oxazol-3-yl}-4,4-difluoropyrrolidin-3-yl]-1,1-difluoromethanesulfonamide], the “OX2R agonist activity (3 μM, %)” value came out at 104%.

For the molecule `Cc1cnc([C@@H]2CC(N3C[C@H](F)[C@H](NS(C)(=O)=O)C3)=NO2)c(-c2c(F)cccc2F)c1` [Example 32, N-[(3R,4S)-1-{(5S)-5-[3-(2,6-difluorophenyl)-5-methylpyridin-2-yl]-4,5-dihydro-1,2-oxazol-3-yl}-4-fluoropyrrolidin-3-yl]methanesulfonamide], the “OX2R agonist activity (3 μM, %)” value came out at 98%.

As to `Cc1cnc([C@@H]2CC(N3C[C@@H](NS(=O)(=O)C4CC4)C(F)(F)C3)=NO2)c(-c2c(F)cccc2F)c1` [Example 33, N-[(3R)-1-{(5S)-5-[3-(2,6-difluorophenyl)-5-methylpyridin-2-yl]-4,5-dihydro-1,2-oxazol-3-yl}-4,4-difluoropyrrolidin-3-yl]cyclopropanesulfonamide], the “OX2R agonist activity (3 μM, %)” value is 102%.

Regarding `CCS(=O)(=O)N[C@@H]1CN(C2=NOC(c3ncc(F)cc3-c3c(F)cc(F)cc3F)C2)CC1(F)F` (stereo partly drawn) [Example 34, N-[(3R)-4,4-difluoro-1-{5-[5-fluoro-3-(2,4,6-trifluorophenyl)pyridin-2-yl]-4,5-dihydro-1,2-oxazol-3-yl}pyrrolidin-3-yl]ethanesulfonamide], the “OX2R agonist activity (3 μM, %)” value is 105%.

Turning to `CN(C)S(=O)(=O)N[C@H]1CCN(C2=NOC(c3ncccc3-c3c(F)cc(F)cc3F)C2)C1` (stereo partly drawn) [Example 35, N,N-dimethyl-N′-[(3S)-1-{5-[3-(2,4,6-trifluorophenyl)pyridin-2-yl]-4,5-dihydro-1,2-oxazol-3-yl}pyrrolidin-3-yl]sulfuric diamide], the “OX2R agonist activity (3 μM, %)” value stood at 92%.

Regarding `O=S(=O)(CF)N[C@H]1CCN(C2=NOC(c3ncc(F)cc3-c3c(F)cc(F)cc3F)C2)C1` (stereo partly drawn) [Example 36, 1-fluoro-N-[(3S)-1-{5-[5-fluoro-3-(2,4,6-trifluorophenyl)pyridin-2-yl]-4,5-dihydro-1,2-oxazol-3-yl}pyrrolidin-3-yl]methanesulfonamide], the “OX2R agonist activity (3 μM, %)” value was 103%.

In the case of `Cc1cnc([C@@H]2CC(N3CC[C@H](NS(=O)(=O)C(F)F)C3)=NO2)c(-c2c(F)cccc2F)c1` [Example 37, N-[(3S)-1-{(5S)-5-[3-(2,6-difluorophenyl)-5-methylpyridin-2-yl]-4,5-dihydro-1,2-oxazol-3-yl}pyrrolidin-3-yl]-1,1-difluoromethanesulfonamide], the “OX2R agonist activity (3 μM, %)” value came to 103%.

Turning to `Cc1cnc([C@@H]2CC(N3CC[C@H](NS(=O)(=O)CF)C3)=NO2)c(-c2c(F)cccc2F)c1` [Example 38, N-[(3S)-1-{(5S)-5-[3-(2,6-difluorophenyl)-5-methylpyridin-2-yl]-4,5-dihydro-1,2-oxazol-3-yl}pyrrolidin-3-yl]-1-fluoromethanesulfonamide], the “OX2R agonist activity (3 μM, %)” value is given as 104%.

Take `CS(=O)(=O)N[C@@H]1CN(C2=NOC(c3ncc(Cl)cc3-c3c(F)cc(F)cc3F)C2)CC1(F)F` (stereo partly drawn) [Example 39, N-[(3R)-1-{5-[5-chloro-3-(2,4,6-trifluorophenyl)pyridin-2-yl]-4,5-dihydro-1,2-oxazol-3-yl}-4,4-difluoropyrrolidin-3-yl]methanesulfonamide]: the “OX2R agonist activity (3 μM, %)” value turned out to be 97%.

With `CS(=O)(=O)N[C@@H]1CN(C2=NOC(c3ncc(Br)cc3-c3c(F)cc(F)cc3F)C2)CC1(F)F` (stereo partly drawn) [Example 40, N-[(3R)-1-{5-[5-bromo-3-(2,4,6-trifluorophenyl)pyridin-2-yl]-4,5-dihydro-1,2-oxazol-3-yl}-4,4-difluoropyrrolidin-3-yl]methanesulfonamide], the “OX2R agonist activity (3 μM, %)” value is on record as 103%.

As for `CS(=O)(=O)N[C@@H]1CN(C2=NOC(c3ncc(C(F)F)cc3-c3c(F)cc(F)cc3F)C2)CC1(F)F` (stereo partly drawn) [Example 41, N-[(3R)-1-{5-[5-(difluoromethyl)-3-(2,4,6-trifluorophenyl)pyridin-2-yl]-4,5-dihydro-1,2-oxazol-3-yl}-4,4-difluoropyrrolidin-3-yl]methanesulfonamide], the “OX2R agonist activity (3 μM, %)” value turned out to be 107%.

`CCS(=O)(=O)N[C@@H]1CN(C2=NOC(c3ncc(Cl)cc3-c3c(F)cc(F)cc3F)C2)CC1(F)F` (stereo partly drawn) [Example 42, N-[(3R)-1-{5-[5-chloro-3-(2,4,6-trifluorophenyl)pyridin-2-yl]-4,5-dihydro-1,2-oxazol-3-yl}-4,4-difluoropyrrolidin-3-yl]ethanesulfonamide]: the “OX2R agonist activity (3 μM, %)” value was found to be 100%.

For the molecule `CCS(=O)(=O)N[C@@H]1CN(C2=NO[C@H](c3ncc(Br)cc3-c3c(F)cc(F)cc3F)C2)CC1(F)F` [Example 43, N-[(3R)-1-{5-[5-bromo-3-(2,4,6-trifluorophenyl)pyridin-2-yl]-4,5-dihydro-1,2-oxazol-3-yl}-4,4-difluoropyrrolidin-3-yl]ethanesulfonamide], the “OX2R agonist activity (3 μM, %)” value came to 103%.

Regarding `Cc1cnc([C@@H]2CC(N3C[C@@H](F)[C@H](NS(C)(=O)=O)C3)=NO2)c(-c2c(F)cccc2F)c1` [Example 44, N-[(3R,4R)-1-{(5S)-5-[3-(2,6-difluorophenyl)-5-methylpyridin-2-yl]-4,5-dihydro-1,2-oxazol-3-yl}-4-fluoropyrrolidin-3-yl]methanesulfonamide], the “OX2R agonist activity (3 μM, %)” value came out at 95%.

As for `Cc1cnc([C@@H]2CC(N3CC[C@H](NS(C)(=O)=O)C3)=NO2)c(-c2c(F)cc(F)cc2F)c1` [Example 45, N-[(3S)-1-{(5S)-5-[5-methyl-3-(2,4,6-trifluorophenyl)pyridin-2-yl]-4,5-dihydro-1,2-oxazol-3-yl}pyrrolidin-3-yl]methanesulfonamide], the “OX2R agonist activity (3 μM, %)” value is reported as 101%.

For `Cc1cnc([C@@H]2CC(N3CC[C@H](NS(=O)(=O)C4(F)CC4)C3)=NO2)c(-c2c(F)cc(F)cc2F)c1` [Example 46, 1-fluoro-N-[(3S)-1-{(5S)-5-[5-methyl-3-(2,4,6-trifluorophenyl)pyridin-2-yl]-4,5-dihydro-1,2-oxazol-3-yl}pyrrolidin-3-yl]cyclopropane-1-sulfonamide], the “OX2R agonist activity (3 μM, %)” value was 99%.

For `CCS(=O)(=O)N[C@@H]1CN(C2=NO[C@H](c3ncc(C)cc3-c3c(F)cc(F)cc3F)C2)CC1(F)F` [Example 47, N-[(3R)-4,4-difluoro-1-{(5S)-5-[5-methyl-3-(2,4,6-trifluorophenyl)pyridin-2-yl]-4,5-dihydro-1,2-oxazol-3-yl}pyrrolidin-3-yl]ethanesulfonamide], the “OX2R agonist activity (3 μM, %)” value came out at 93%.

As to `Cc1cnc([C@@H]2CC(N3C[C@@H](F)[C@H](NS(C)(=O)=O)C3)=NO2)c(-c2c(F)cc(F)cc2F)c1` [Example 48, N-[(3R,4R)-4-fluoro-1-{(5S)-5-[5-methyl-3-(2,4,6-trifluorophenyl)pyridin-2-yl]-4,5-dihydro-1,2-oxazol-3-yl}pyrrolidin-3-yl]methanesulfonamide], the “OX2R agonist activity (3 μM, %)” value worked out at 94%.

As for `CS(=O)(=O)N[C@@H]1CN(C2=NOC(c3ncc(Cl)cc3-c3c(F)cccc3F)C2)CC1(F)F` (stereo partly drawn) [Example 49, N-[(3R)-1-{5-[5-chloro-3-(2,6-difluorophenyl)pyridin-2-yl]-4,5-dihydro-1,2-oxazol-3-yl}-4,4-difluoropyrrolidin-3-yl]methanesulfonamide], the “OX2R agonist activity (3 μM, %)” value is 95%.

In the case of `Cc1ccc([C@@H]2CC(N3CC[C@H](NS(C)(=O)=O)C3)=NO2)c(-c2ncc(F)cc2F)c1` [Example 50, N-[(3S)-1-{5-[2-(3,5-difluoropyridin-2-yl)-4-methylphenyl]-4,5-dihydro-1,2-oxazol-3-yl}pyrrolidin-3-yl]methanesulfonamide], the “OX2R agonist activity (3 μM, %)” value was determined as 99%.
